Test results from ChEMBL document CHEMBL1201862, “PubChem BioAssay data set” (2004).
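Five compound concentrations were applied to cells in 96-well plates for 48 hours; endpoints were derived by simple linear interpolation of the resulting dose-response curve. Here, GI50 denotes the concentration required for 50% inhibition of growth.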 Calls of active or inactive are those of the source. Rule as the data show it: active = GI50 up to about 1.1 µM and inactive = higher.

Legend:
Assay in all cases: inhibition of tumour cell growth, NCI panel, 48 h
UO-31 = tested on: UO-31
TK-10 = tested on: TK-10
OVCAR-3 = tested on: OVCAR-3
CCRF-CEM = tested on: CCRF-CEM
UACC-62 = tested on: UACC-62
U-251 = tested on: U-251
HOP-92 = tested on: HOP-92
HCT-116 = tested on: HCT-116
NCI-H522 = tested on: NCI-H522
DLD-1 = tested on: DLD-1
COLO 205 = tested on: COLO 205
OVCAR-4 = tested on: OVCAR-4
OVCAR-5 = tested on: OVCAR-5
SNB-19 = tested on: SNB-19
M14 = tested on: M14
SK-MEL-2 = tested on: SK-MEL-2
A498 = tested on: A498
LOX IMVI = tested on: LOX IMVI
MCF7 = tested on: MCF7
NCI/ADR-RES = tested on: NCI/ADR-RES

Structure (SMILES) | GI50 (UO-31) | GI50 (TK-10) | GI50 (OVCAR-3) | GI50 (CCRF-CEM) | GI50 (UACC-62) | GI50 (U-251) | GI50 (HOP-92) | GI50 (HCT-116) | GI50 (NCI-H522) | GI50 (DLD-1) | GI50 (COLO 205) | GI50 (OVCAR-4) | GI50 (OVCAR-5) | GI50 (SNB-19) | GI50 (M14) | GI50 (SK-MEL-2) | GI50 (A498) | GI50 (LOX IMVI) | GI50 (MCF7) | GI50 (NCI/ADR-RES)
c1ccc(C2=NOC3C4CCC(C4)C23)cc1 (stereo unspecified) | > 100 µM (inactive) | > 100 µM (inactive) | > 100 µM (inactive) | > 100 µM (inactive) | > 100 µM (inactive) | > 100 µM (inactive) | > 100 µM (inactive) | > 100 µM (inactive) | > 100 µM (inactive) | > 100 µM (inactive) | > 100 µM (inactive) | > 100 µM (inactive) | > 100 µM (inactive) | > 100 µM (inactive) | > 100 µM (inactive) | > 100 µM (inactive) | > 100 µM (inactive) | – | – | –
C/C=C1/C(=O)O[C@]23C=C[C@@H]4C(C(=O)OC)=CO[C@H](O[C@@H]12)[C@@H]43 [PLUMERICIN] | 3.12 µM (inactive) | – | 0.861 µM (active) | 0.341 µM (active) | 0.815 µM (active) | 2.7 µM (inactive) | 1.61 µM (inactive) | 0.451 µM (active) | 0.353 µM (active) | 0.432 µM (active) | 1 µM (active) | 1.52 µM (inactive) | 3.66 µM (inactive) | 3.56 µM (inactive) | – | 1.44 µM (inactive) | 0.838 µM (active) | 0.336 µM (active) | 0.832 µM (active) | 0.676 µM (active)
COc1cccc2c1C(=O)c1c(O)c3c(c(O)c1C2=O)C[C@@](O)(C(=O)CO)CC3OC1CC(N)C(OC2CCCCO2)C(C)O1 (stereo partly specified) | 0.762 µM (active) | 1.37 µM (inactive) | 1.56 µM (inactive) | 0.168 µM (active) | 0.918 µM (active) | 0.402 µM (active) | 0.0715 µM (active) | 0.324 µM (active) | 0.541 µM (active) | 1.82 µM (inactive) | 1.21 µM (inactive) | 0.0366 µM (active) | 1.71 µM (inactive) | 0.437 µM (active) | 1.2 µM (inactive) | 1.85 µM (inactive) | 0.309 µM (active) | 0.356 µM (active) | 0.001 µM (active) | 0.959 µM (active)
CN(C)CCNC(=O)c1cccc2nc3c4ccccc4c4ccccc4c3nc12 | 9.44 µM (inactive) | 5.38 µM (inactive) | 3.44 µM (inactive) | 1.13 µM (inactive) | 2.35 µM (inactive) | 2 µM (inactive) | 7.82 µM (inactive) | 1.53 µM (inactive) | 2.71 µM (inactive) | 1.56 µM (inactive) | 3.89 µM (inactive) | 1.8 µM (inactive) | 7.67 µM (inactive) | 3.48 µM (inactive) | 2.29 µM (inactive) | 3.22 µM (inactive) | 7 µM (inactive) | 1.64 µM (inactive) | 1.14 µM (inactive) | –
O=C(CC1(O)C(=O)Nc2ccccc21)c1ccc(O)cc1O (stereo unspecified) | > 100 µM (inactive) | > 100 µM (inactive) | > 100 µM (inactive) | – | > 100 µM (inactive) | – | > 100 µM (inactive) | > 100 µM (inactive) | > 100 µM (inactive) | > 100 µM (inactive) | > 100 µM (inactive) | > 100 µM (inactive) | > 100 µM (inactive) | > 100 µM (inactive) | > 100 µM (inactive) | > 100 µM (inactive) | > 100 µM (inactive) | > 100 µM (inactive) | – | –
CCOC(=O)CN1C(=O)c2cccc3cc([N+](=O)[O-])cc(c23)C1=O | 14 µM (inactive) | 17 µM (inactive) | 4.7 µM (inactive) | 0.287 µM (active) | 2.4 µM (inactive) | 7.55 µM (inactive) | 2.19 µM (inactive) | 1.63 µM (inactive) | – | 2.21 µM (inactive) | – | 1.85 µM (inactive) | 15.5 µM (inactive) | 18.2 µM (inactive) | 3.35 µM (inactive) | 1.17 µM (inactive) | 16.8 µM (inactive) | 1.43 µM (inactive) | – | –
CCN(CC)C(=O)Cc1[nH][nH]c(=O)c1C(=O)N(CC)CC | > 100 µM (inactive) | > 100 µM (inactive) | > 100 µM (inactive) | > 100 µM (inactive) | > 100 µM (inactive) | > 100 µM (inactive) | > 100 µM (inactive) | > 100 µM (inactive) | > 100 µM (inactive) | > 100 µM (inactive) | > 100 µM (inactive) | > 100 µM (inactive) | – | > 100 µM (inactive) | > 100 µM (inactive) | > 100 µM (inactive) | > 100 µM (inactive) | > 100 µM (inactive) | – | –
O=Cc1ccccc1OCCOc1cc(OCCOc2ccccc2C=O)c(OCCOc2ccccc2C=O)cc1OCCOc1ccccc1C=O | > 52.8 µM (inactive) | 42.6 µM (inactive) | > 100 µM (inactive) | > 37.1 µM (inactive) | > 100 µM (inactive) | 12.6 µM (inactive) | 26.2 µM (inactive) | 21.9 µM (inactive) | > 86.9 µM (inactive) | 40.7 µM (inactive) | > 100 µM (inactive) | 39.9 µM (inactive) | > 100 µM (inactive) | > 31.6 µM (inactive) | > 83.9 µM (inactive) | 44.9 µM (inactive) | > 100 µM (inactive) | 36.5 µM (inactive) | – | –
CN(C)CCNC(=O)c1cc([N+](=O)[O-])cc2ccc(-c3ccccc3)nc12 | 2.9 µM (inactive) | 22.2 µM (inactive) | 10.9 µM (inactive) | 3.1 µM (inactive) | 4.62 µM (inactive) | 10.2 µM (inactive) | 10.5 µM (inactive) | 3.23 µM (inactive) | 3.85 µM (inactive) | 9.2 µM (inactive) | 6.05 µM (inactive) | 5.55 µM (inactive) | 6.4 µM (inactive) | 8.02 µM (inactive) | 33.7 µM (inactive) | 19.3 µM (inactive) | 3.78 µM (inactive) | 7.03 µM (inactive) | 2.71 µM (inactive) | 2.17 µM (inactive)
O=C(Nc1cccc(Cl)c1)C(=O)C(C(=O)c1ccc2ccccc2c1)C1OC(=O)c2ccccc21 (stereo unspecified) | 14.1 µM (inactive) | 29 µM (inactive) | 14.7 µM (inactive) | 11.2 µM (inactive) | 15.3 µM (inactive) | 5.4 µM (inactive) | 20.6 µM (inactive) | 12.6 µM (inactive) | > 10 µM (inactive) | 16.3 µM (inactive) | 17.1 µM (inactive) | 8.41 µM (inactive) | 24.8 µM (inactive) | 5.3 µM (inactive) | 16 µM (inactive) | 14.6 µM (inactive) | 6.01 µM (inactive) | 17.3 µM (inactive) | – | –
O=C1Nc2cc([N+](=O)[O-])c(Br)cc2C1=O | 18.5 µM (inactive) | > 100 µM (inactive) | 18.1 µM (inactive) | 6.01 µM (inactive) | 18.7 µM (inactive) | > 10 µM (inactive) | 24.5 µM (inactive) | – | 16.6 µM (inactive) | 22.2 µM (inactive) | 18.4 µM (inactive) | 16.4 µM (inactive) | – | > 10 µM (inactive) | 16.6 µM (inactive) | 26.7 µM (inactive) | > 100 µM (inactive) | 18.5 µM (inactive) | – | –
COc1ccc(/C=C/C(=O)C(C)C)cc1 | 80.2 µM (inactive) | 92 µM (inactive) | 25.9 µM (inactive) | 35.9 µM (inactive) | 45 µM (inactive) | 34.1 µM (inactive) | 54.8 µM (inactive) | 49.8 µM (inactive) | 20.6 µM (inactive) | 63.1 µM (inactive) | 40 µM (inactive) | 47.9 µM (inactive) | > 100 µM (inactive) | 46.7 µM (inactive) | 28.3 µM (inactive) | 27.7 µM (inactive) | 35.5 µM (inactive) | 32.9 µM (inactive) | – | –
CC(=O)NC1=C(C)C(=O)c2c(nc3n2CCC3O)C1=N (stereo unspecified) | 22.9 µM (inactive) | 29.9 µM (inactive) | 2.98 µM (inactive) | 2.93 µM (inactive) | 4.71 µM (inactive) | 13.2 µM (inactive) | 4.36 µM (inactive) | 2.39 µM (inactive) | 6.75 µM (inactive) | 11.6 µM (inactive) | 18.9 µM (inactive) | 4.09 µM (inactive) | 21.6 µM (inactive) | 25.1 µM (inactive) | – | 9.68 µM (inactive) | 27.2 µM (inactive) | 5.85 µM (inactive) | – | –
Nc1ncnc2c1ncn2C1CC(OC2CCCCO2)C(CO)O1 (stereo unspecified) | > 100 µM (inactive) | > 100 µM (inactive) | > 100 µM (inactive) | > 100 µM (inactive) | – | > 100 µM (inactive) | > 100 µM (inactive) | > 100 µM (inactive) | > 100 µM (inactive) | > 100 µM (inactive) | > 100 µM (inactive) | > 100 µM (inactive) | > 100 µM (inactive) | > 100 µM (inactive) | > 100 µM (inactive) | > 100 µM (inactive) | > 100 µM (inactive) | > 100 µM (inactive) | – | –
N#CC(C(=O)CCC(=O)Nc1cccc(C(F)(F)F)c1)c1ccccc1 (stereo unspecified) | > 100 µM (inactive) | > 100 µM (inactive) | > 100 µM (inactive) | > 100 µM (inactive) | > 100 µM (inactive) | > 100 µM (inactive) | > 100 µM (inactive) | > 100 µM (inactive) | > 100 µM (inactive) | > 100 µM (inactive) | – | > 100 µM (inactive) | > 100 µM (inactive) | > 100 µM (inactive) | > 100 µM (inactive) | > 100 µM (inactive) | > 100 µM (inactive) | > 100 µM (inactive) | – | –
CCO/C([O-])=C(/C=O)[n+]1c(C)n(C)c2ccccc21 | > 100 µM (inactive) | > 100 µM (inactive) | > 100 µM (inactive) | > 100 µM (inactive) | > 100 µM (inactive) | > 100 µM (inactive) | – | > 100 µM (inactive) | > 100 µM (inactive) | > 100 µM (inactive) | > 100 µM (inactive) | > 100 µM (inactive) | > 100 µM (inactive) | > 100 µM (inactive) | > 100 µM (inactive) | > 100 µM (inactive) | > 100 µM (inactive) | > 100 µM (inactive) | – | –
